Row | Compound | melting point [°C]
1 | CS(=O)(=O)c1ccc(-c2nn3c(c2-c2ccc(F)cc2)OCCC3)cc1 [Example 1, 3-(4-Fluorophenyl)-2-(4-(methylsulphonyl)phenyl)-6,7-dihydro-5H-pyrazolo[5,1-b][1,3]oxazine] | 198 to 200
2 | CS(=O)(=O)c1ccc(-c2nn3c(c2-c2ccc(F)cc2)OCCCC3)cc1 [Example 2, 3-(4-Fluorophenyl)-2-(4-(methylsulphonyl)phenyl)-5,6,7,8-tetrahydropyrazolo[5,1-b][1,3]oxazepine] | 167 to 168
3 | CC(=O)C(C)Oc1nn(C(C)C(C)=O)c(-c2ccc(S(C)(=O)=O)cc2)c1-c1ccc(F)cc1 (centres unmarked) [Example 17, 3-[4-(4-Fluorophenyl)-5-(4-methylsulfonylphenyl)-3-(1-methyl-2-oxopropoxy)-1H-pyrazol-1-yl]butan-2-one] | 127 to 129
4 | CC(C)n1nc(OCC(=O)c2ccc(F)cc2)c(-c2ccc(F)cc2)c1-c1ccc(S(C)(=O)=O)cc1 [Example 19, 2-{[4-(4-Fluorophenyl)-5-(4-(methylsulphonyl)phenyl)-1-isopropyl-1H-pyrazol-3-yl]oxy}-1-(4-fluorophenyl)ethan-1-one] | 184 to 185
5 | CC(C)(C)C(=O)COc1nn(CC(=O)C(C)(C)C)c(-c2ccc(S(C)(=O)=O)cc2)c1-c1ccc(F)cc1 [Example 25, 1-[3-(3,3-Dimethyl-2-oxobutoxy)-4-(4-fluorophenyl)-5-(4-(methylsulphonyl)phenyl)-1H-pyrazol-1-yl]-3,3-dimethylbutan-2-one] | 180 to 182
6 | CC(C)(C)C(=O)COc1nn(CC#N)c(-c2ccc(S(C)(=O)=O)cc2)c1-c1ccc(F)cc1 [Example 28, 2-[3-(3,3-Dimethyl-2-oxobutoxy)-4-(4-fluorophenyl)-5-(4-(methylsulphonyl)phenyl)-1H-pyrazol-1-yl]acetonitrile] | 156 to 159
7 | CS(=O)(=O)c1ccc(-c2nn3c(-c4ccc(F)cc4)coc3c2-c2ccc(F)cc2)cc1 [Example 36B, 3,7-Bis(4-fluorophenyl)-6-(4-(methylsulphonyl)phenyl)pyrazolo[5,1-b][1,3]oxazole] | 200 to 202
8 | CS(=O)(=O)c1ccc(-c2nn3c(-c4ccccc4)coc3c2-c2ccc(F)cc2)cc1 [Example 37, 7-(4-Fluorophenyl)-6-(4-(methylsulphonyl)phenyl)-3-phenylpyrazolo[5,1-b][1,3]oxazole] | 151 to 154
9 | CS(=O)(=O)c1ccc(-c2nn3c(-c4ccccc4)c(-c4ccccc4)oc3c2-c2ccc(F)cc2)cc1 [Example 38, 7-(4-Fluorophenyl)-6-(4-(methylsulphonyl)phenyl)-2,3-diphenylpyrazolo[5,1-b][1,3]oxazole] | 228 to 229
10 | CS(=O)(=O)c1ccc(-c2nn3c(C4C5CC6CC(C5)CC4C6)coc3c2-c2ccc(F)cc2)cc1 (centres unmarked) [Example 39, 3-(2-Adamantyl)-7-(4-fluorophenyl)-6-(4-(methylsulphonyl)phenyl)pyrazolo[5,1-b][1,3]oxazole] | 128 to 131
11 | CC(C)(C)c1coc2c(-c3ccc(F)cc3)c(-c3ccc(S(C)(=O)=O)cc3)nn12 [Example 40, 3-(Tert-butyl)-7-(4-fluorophenyl)-6-(4-(methylsulphonyl)phenyl)pyrazolo[5,1-b][1,3]oxazole] | 181 to 182
12 | Cc1oc2c(-c3ccc(F)cc3)c(-c3ccc(S(C)(=O)=O)cc3)nn2c1-c1ccccc1 [Example 41, 7-(4-Fluorophenyl)-2-methyl-6-(4-(methylsulphonyl)phenyl)-3-phenylpyrazolo[5,1-b][1,3]oxazole] | 234 to 236
13 | CS(=O)(=O)c1ccc(-c2nn3c4c(oc3c2-c2ccc(F)cc2)CCCC4)cc1 [Example 42, 3-(4-Fluorophenyl)-2-(4-(methylsulphonyl)phenyl)-5,6,7,8-tetrahydropyrazolo[5,1-b][1,3]benzoxazole] | 183 to 184
14 | Cc1c(-c2ccc(F)cc2)oc2c(-c3ccc(F)cc3)c(-c3ccc(S(C)(=O)=O)cc3)nn12 [Example 43, 2,7-Bis(4-fluorophenyl)-3-methyl-6-(4-(methylsulphonyl)phenyl)pyrazolo[5,1-b][1,3]oxazole] | 257 to 259
15 | Cc1oc2c(-c3ccc(F)cc3)c(-c3ccc(S(C)(=O)=O)cc3)nn2c1-c1cccs1 [Example 44, 7-(4-Fluorophenyl)-3-(2-thienyl)-2-methyl-6-(4-(methylsulphonyl)phenyl)pyrazolo[5,1-b][1,3]oxazole] | 240 to 241
16 | Cc1oc2c(-c3ccc(F)cc3)c(-c3ccc(S(C)(=O)=O)cc3)nn2c1-c1ccc(Cl)s1 [Example 45, 3-(5-Chloro-2-thienyl)-7-(4-fluorophenyl)-2-methyl-6-(4-(methylsulphonyl)phenyl)pyrazolo[5,1-b][1,3]oxazole] | 222 to 223
17 | Cc1c(-c2cccc(C(F)(F)F)c2)oc2c(-c3ccc(F)cc3)c(-c3ccc(S(C)(=O)=O)cc3)nn12 [Example 46, 6-(4-(Methylsulphonyl)phenyl)-7-(4-fluorophenyl)-3-methyl-2-[3-(trifluoromethyl)phenyl]pyrazolo[5,1-b][1,3]oxazole] | 194 to 195
18 | Cc1cc(-c2coc3c(-c4ccc(F)cc4)c(-c4ccc(S(C)(=O)=O)cc4)nn23)ccc1Cl [Example 47, 3-(4-Chloro-3-methylphenyl)-7-(4-fluorophenyl)-6-(4-(methylsulphonyl)phenyl)pyrazolo[5,1-b][1,3]oxazole] | 202 to 205

Row | Compound | melting point [°C]
19 | Cc1oc2c(-c3ccc(F)cc3)c(-c3ccc(S(C)(=O)=O)cc3)nn2c1C [Example 48, 7-(4-Fluorophenyl)-6-(4-methylsulfonylphenyl)-2,3-dimethylpyrazolo[5,1-b][1,3]oxazole] | 158 to 160
20 | CS(=O)(=O)c1ccc(-c2nn3c(C(F)(F)F)coc3c2-c2ccc(F)cc2)cc1 [Example 50, 7-(4-Fluorophenyl)-6-(4-(methylsulphonyl)phenyl)-3-(trifluoromethyl)pyrazolo[5,1-b][1,3]oxazole] | 186 to 189
21 | CCOC(=O)c1oc2c(-c3ccc(F)cc3)c(-c3ccc(S(C)(=O)=O)cc3)nn2c1C [Example 51, Ethyl 7-(4-Fluorophenyl)-6-(4-methylsulfonylphenyl)-3-methylpyrazolo[5,1-b][1,3]oxazole-2-carboxylate] | 203 to 204
22 | CS(=O)(=O)c1ccc(-c2nn3c4c(oc3c2-c2ccc(F)cc2)COCC4)cc1 [Example 52, 3-(4-Fluorophenyl)-2-(4-methylsulfonylphenyl)-7,8-dihydro-5H-pyrazolo[5,1-b]pyrano[4,3-d][1,3]oxazole] | 200 to 201
23 | CS(=O)(=O)c1ccc(-c2nn3c4c(oc3c2-c2ccc(F)cc2)CSCC4)cc1 [Example 53, 3-(4-Fluorophenyl)-2-(4-methylsulfonylphenyl)-7,8-dihydro-5H-pyrazolo[5,1-b]thiopyrano[4,3-d][1,3]oxazole] | 178 to 180
24 | Cc1c(C#N)oc2c(-c3ccc(F)cc3)c(-c3ccc(S(C)(=O)=O)cc3)nn12 [Example 54, 2-Cyano-7-(4-fluorophenyl)-3-methyl-6-(4-(methylsulphonyl)phenyl)pyrazolo[5,1-b][1,3]oxazole] | 236 to 238
25 | NS(=O)(=O)c1ccc(-c2nn3c(-c4ccc(F)cc4)coc3c2-c2ccc(F)cc2)cc1 [Example 57, 4-[3,7-Bis(4-fluorophenyl)pyrazolo[5,1-b][1,3]oxazol-6-yl]benzenesulphonamide] | 235 to 237
26 | CC=CC(=O)c1oc2c(-c3ccc(F)cc3)c(-c3ccc(S(C)(=O)=O)cc3)nn2c1C [Example 58, 1-[7-(4-Fluorophenyl)-3-methyl-6-(4-(methylsulphonyl)phenyl)pyrazolo[5,1-b][1,3]oxazol-2-yl]but-2-en-1-one] | 197 to 199
27 | Cc1c(C#N)oc2c(-c3ccc(F)cc3)c(-c3ccc(S(N)(=O)=O)cc3)nn12 [Example 59, 6-(4-(Aminosulphonyl)phenyl)-2-cyano-7-(4-Fluorophenyl)-3-methyl-pyrazolo[5,1-b][1,3]oxazole] | 231 to 232
28 | CS(=O)(=O)c1ccc(-c2nn3ccoc3c2-c2ccc(F)cc2)cc1 [Example 60, 7-(4-Fluorophenyl)-6-(4-(methylsulphonyl)phenyl)pyrazolo[5,1-b][1,3]oxazole] | 67 to 70
29 | CCc1coc2c(-c3ccc(F)cc3)c(-c3ccc(S(C)(=O)=O)cc3)nn12 [Example 61, 3-Ethyl-7-(4-fluorophenyl)-6-(4-(methylsulphonyl)phenyl)pyrazolo[5,1-b][1,3]oxazole] | 177 to 179
30 | CCc1coc2c(-c3ccc(F)cc3)c(-c3ccc(S(N)(=O)=O)cc3)nn12 [Example 62, 6-(4-(aminosulphonyl)phenyl)-3-Ethyl-7-(4-fluorophenyl)pyrazolo[5,1-b][1,3]oxazole] | 234 to 236
31 | CS(=O)(=O)c1ccc(-c2c(-c3ccc(F)cc3)c(OCc3c(F)cccc3Cl)nn2Cc2c(F)cccc2Cl)cc1 [Example 64, 1-(2-Chloro-6-fluorobenzyl)-3-[(2-chloro-6-fluorobenzyl)oxy]-4-(4-fluorophenyl)-5-(4-(methylsulphonyl)phenyl)-1H-pyrazole] | 195 to 196
32 | CS(=O)(=O)c1ccc(-c2c(-c3ccc(F)cc3)c(=O)n3n2Cc2c(Cl)cccc2-3)cc1 [Example 65, 8-Chloro-2-(4-fluorophenyl)-1-(4-(methylsulphonyl)phenyl)-3H,9H-pyrazolo[1,2-a]indazol-3-one] | 237 to 240
33 | CS(=O)(=O)c1ccc(-c2c(-c3ccc(F)cc3)nn3c(-c4ccc(F)cc4)coc23)cc1 [Example 73, 3,6-Bis(4-fluorophenyl)-7-(4-methylsulfonylphenyl)pyrazolo[5,1-b][1,3]oxazole] | 289 to 291
34 | Cc1c(-c2ccc(F)cc2)oc2c(-c3ccc(S(C)(=O)=O)cc3)c(-c3ccc(F)cc3)nn12 [Example 74, 2,6-Bis(4-fluorophenyl)-3-methyl-7-(4-(methylsulphonyl)phenyl)pyrazolo[5,1-b][1,3]oxazole] | 289 to 291
35 | CS(=O)(=O)c1ccc(-c2c(OCC(=O)c3ccc(F)cc3)nn(CC(=O)c3ccc(F)cc3)c2-c2ccc(F)cc2)cc1 [Example 75, 2-[5-(4-Fluorophenyl)-4-(4-(methylsulphonyl)phenyl)-3-(2-oxo-2-(4-fluorophenyl)ethoxy)-1H-pyrazol-1-yl]-1-(4-fluorophenyl)ethan-1-one] | 191 to 193

Source: patent US6472416B1, “Sulfonylphenylpyrazole compounds useful as COX-2 inhibitors” (Abbott Laboratories, priority 1999, dated 2002)
